The source of these data is US11318157B2, “6-6 bicyclic aromatic ring substituted nucleoside analogues for use as PRMT5 inhibitors” (Janssen Pharmaceutica NV, priority 2015, dated 2022).

The target in test [1] is T1, PRMT5-MEP50 enzyme (Homo sapiens, UniProt O14744).
T1 construct: One virus expresses full length human PRMT5 with Flag-tag at N-terminus; Flag (N); purchased Charles River (Argenta); host or cells: insect cells (Sf9), baculovirus co-infection
The test is described as follows: In vitro assay 1b: high throughput mass spectrometer assay of SAH formation, 1.25 nM enzyme, 120 min. Particulars: averaged values; PRMT5-MEP50, 1.25 nM enzyme, 120 min; read-out: pIC50 Assay 1b (converted). Format: biochemical. The source says: (§1) Experimental Procedures In Vitro Assay (Assay 1a and 1b)
(§2) PRMT5-MEP50 enzyme was purchased from Charles River (Argenta). The enzyme complex was produced in insect cells (Sf9) infected simultaneously with two baculoviruses. One virus expresses full length human PRMT5 with Flag-tag at N-terminus, the second virus expresses full length MEP50 with His6-TEV cleavage at N-terminus. The protein was affinity purified using anti-Flag (M2) beads eluted with 3×FLAG peptide, followed by His-Select eluted with 0.5M imidazole. Eluted protein was then dialysed against tris-buffered saline (TBS) (pH 8.0) containing 20% glycerol and 3 mM dithiothreitol (DTT).
(§3) Full-length untagged human recombinant histone H2A (residues 1-130, Genbank Accession #NM_021052 MW=14.1 kDa) expressed in E. coli was purchased from Reaction Biology Corporation, Cat #HMT-11-146. Reagents used for making reaction buffer or stopping reaction were purchased including Tris base (Sigma Cat #T-1503), NaCl (Sigma Cat #RGF-3270), MgCl2 (Sigma Cat #M0250), DTTI (Invitrogen Cat #15508-013) and Formic Acid (Riedel deHaen, Cat #33015)
(§4) High Throughput Mass Spectrometer Assay
(§5) PRMT5 catalyzes the sequential methylations of the terminal nitrogen atoms on the guanidine groups of arginine residues within proteins using co-substrate S-adenosyl-L-methionine (AdoMet, SAM), forming mono-methyl (MMA), symmetric-dimethyl arginine (sDMA) and S-adenosyl-L-homocysteine (AdoHcy, SAH). The enzyme activity was determined by following the product SAH formation using high throughput mass spectrometry (Agilent Rapidfire 300 System coupled to a Sciex 4000 series QTrap® triple-quad MS/MS). The reaction buffer was 20 mM Tris-HCl, pH 8.5, 50 mM NaCl, 5 mM MgCl2 and 1 mM DTT. The reaction activity was stopped using 1% formic acid (final concentration).
(§6) The IC50 Studies were performed using eleven point dosing series made for each compound by serially diluted 1:2 in dimethyl sulfoxide (DMSO), with point 12 being a DMSO control. Compounds were first spotted to plates, and followed by addition of 2 μM SAM and 0.6 μM H2A (histone H2A) solution mixture. The same volume of enzyme solution was added to initiate the enzymatic reactions. The final concentrations of the reaction are at 1 μM SAM, 0.3 μM H2A and 10 nM enzyme (assay 1a) or 1.25 nM enzyme (assay 1b). The reaction was incubated at 30° C. for 60 minutes (min) when 10 nM enzyme was used and for 120 min when 1.25 nM enzyme was used. Subsequently, the reaction was quenched by addition of formic acid to a final concentration of 1%. The inhibitions of SAH formation in the presence of compounds were calculated as a percentage of the control relative to the uninhibited reaction as a function of inhibitor concentration. The data were fit as follows: Y=Bottom+(Top−Bottom)/(1+10^((log IC50−X)*h))
(§7) where IC50 is the inhibitor concentration (same unit as X) at 50% inhibition and h is the Hill slope. Y is percent of inhibition, X is log of compound concentration. Bottom and Top are the plateaus in same units as Y.

Test [2] deals with T1, PRMT5-MEP50 enzyme. The experiment in a line: In vitro assay 1a: high throughput mass spectrometer assay of SAH formation, 10 nM enzyme, 60 min. Particulars: averaged values, PRMT5-MEP50, 10 nM enzyme, read-out: pIC50 Assay 1a (converted). Type of test: biochemical.
Description: as §1, §2, §3, §4, §5, §6, §7

For test [3], the system named is nuclear symmetric Arginine dimethylation in A549 cells. The experiment in a line: PD assay (assay 2): inhibition of nuclear symmetric Arginine dimethylation (SYM10 immunohistochemistry), 48 h. Type of test: cell-based. Particulars: for IC50: Homo sapiens. As for the experimental part:
Experimental Procedure PD Assay (Assay 2)
A549 cells (ATCC, Cat #CCL-185) were cultured in Dulbecco's Modified Eagle's Medium (DMEM) (Sigma, Cat #D5796), supplemented with 10% Fetal Calf Serum (FCS) (HyClone™, Cat #SV30160.03), 100 mM Sodium Pyruvate (Sigma, Cat #S8636), 200 mM L-Glutamine (Sigma, Cat #G7513) and 50 mg/mL gentamycin (Gibco, Cat #15750-037).
Reagents used for buffers were purchased: Dulbecco's phosphate buffered saline (DPBS) without Ca/Mg (Sigma, Cat #D8537), phosphate buffered saline (PBS) 10× (Roche, Cat #11 666 789 001), Formalin solution 10% (Sigma, HT50-1-128-4L), Methanol 100% (Sigma, Cat #32213-2.5L), Triton X-100 (Acros, Cat #215680010), Bovine Serum Albumin (BSA) (Sigma, Cat #A2153), Alexa fluor 488 goat anti-rabbit antibody (Life Technologies, Cat #A11034), HCS CellMask Deep Red Stain (Life Technologies, Cat #H32721), Hoechst Stain (Life Technologies, Cat #33258), Anti-dimethyl-Arginine, sym (SYM10) antibody (Millipore, 07-412).
Immunohistochemistry Procedure
Cells were plated at 400 cells/40 μL/well in 384 well black μplates clear bottom (Perkin Elmer) and overnight incubated at 37° C., 5% CO2. […] 80 nL of the respective dilution of the compounds was added using the Labcyte POD 810 (Labcyte) reaching a final DMSO concentration of 0.2% in cell culture. After an incubation period of 48 h at 37° C. and 5% CO2, cells were fixed in 10% formalin solution for 15 min at room temperature and 20 min in ice-cold methanol, after which they were washed 3× in DPBS. Subsequently, the cells were blocked for 1 h in blocking buffer (PBS+1% BSA and 0.5% Triton X-100) and incubated overnight at 4° C. with the SYM10 antibody diluted 1/2000 in blocking buffer. The cells were washed 3× with washing buffer (PBS+0.1% Triton X-100) and incubated with the Alexa fluor 488 goat anti-rabbit antibody diluted 1/200 in blocking buffer for 1 h at room temperature. Subsequently, they were washed 3× with washing buffer and incubated for 30 min at room temperature with PBS containing a 1/5000 dilution of Hoechst Stain and a 1/5000 dilution of the HCS CellMask Deep Red Stain. After a final wash with PBS, the plates were imaged using the 10×W lens of the Opera® system (Perkin Elmer Life Sciences) using following settings (values in nm):
In the above equations, the following variable names are used: […]
In the above equations, the following controls were used for normalization: […]
Low control: minimum level of symmetrically dimethylated Arginines (cells treated with reference compound at 10 μM).
High control: maximum level of symmetrically dimethylated Arginines (DMSO treated cells).
IC50 and pIC50 (−log IC50) values were calculated using the appropriate software.
The pIC50 values in the Table below are averaged values (Co. No. means compound number; n.d. means not determined).

The mark [4] stands for this setting: A549, averaged values, PD assay, A549 cells, symmetric Arginine dimethylation, read-out: pIC50 Assay 2 (converted).

Read-outs that look alike come from different tables or passages of the source.

T1 sequence (O14744 whole entry): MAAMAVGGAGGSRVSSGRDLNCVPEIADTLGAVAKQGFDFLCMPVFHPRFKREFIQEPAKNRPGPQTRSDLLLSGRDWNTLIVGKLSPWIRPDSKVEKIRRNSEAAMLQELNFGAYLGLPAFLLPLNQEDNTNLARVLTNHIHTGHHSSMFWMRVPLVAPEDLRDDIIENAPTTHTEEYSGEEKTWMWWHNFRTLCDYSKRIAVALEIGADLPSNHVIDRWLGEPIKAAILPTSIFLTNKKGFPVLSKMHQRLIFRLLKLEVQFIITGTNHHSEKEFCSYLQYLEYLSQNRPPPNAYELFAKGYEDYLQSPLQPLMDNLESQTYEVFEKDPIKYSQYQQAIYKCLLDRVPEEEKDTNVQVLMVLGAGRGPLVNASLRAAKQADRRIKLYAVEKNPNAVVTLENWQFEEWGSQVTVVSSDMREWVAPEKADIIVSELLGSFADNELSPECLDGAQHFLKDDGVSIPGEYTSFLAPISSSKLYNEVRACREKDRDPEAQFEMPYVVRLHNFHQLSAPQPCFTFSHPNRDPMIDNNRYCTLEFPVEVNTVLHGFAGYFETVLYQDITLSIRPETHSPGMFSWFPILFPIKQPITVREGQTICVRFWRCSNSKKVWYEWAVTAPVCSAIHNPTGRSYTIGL
T1 sequence (Q9BQA1 whole entry partner): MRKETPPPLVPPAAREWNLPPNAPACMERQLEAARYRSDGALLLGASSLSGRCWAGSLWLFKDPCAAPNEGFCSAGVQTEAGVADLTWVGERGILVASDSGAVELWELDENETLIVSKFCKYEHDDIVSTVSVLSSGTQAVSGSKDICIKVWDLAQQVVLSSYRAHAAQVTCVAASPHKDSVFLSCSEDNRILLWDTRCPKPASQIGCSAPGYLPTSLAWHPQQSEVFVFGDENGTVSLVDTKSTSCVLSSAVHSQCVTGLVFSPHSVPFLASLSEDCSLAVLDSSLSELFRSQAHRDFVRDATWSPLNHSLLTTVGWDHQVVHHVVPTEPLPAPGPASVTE

As to `COc1ncnc2c1ccn2[C@@H]1O[C@H](CN(C)c2ccc3cc(Br)cnc3c2)[C@@H](O)[C@H]1O` [Compound 88], the IC50 on PRMT5-MEP50 enzyme [1] was 7940 nM; at PRMT5-MEP50 enzyme [2] it was > 10000 nM; in test [3] (setting [4]), > 10000 nM.
As to `C=Cc1cnc2cc(OC[C@H]3O[C@@H](n4ccc5c(N)ncnc54)[C@H](O)[C@@H]3O)ccc2c1` [Compound 253], the IC50 at PRMT5-MEP50 enzyme [2] is 20 nM.
In the case of `Nc1ncnc2c1ccn2[C@@H]1C[C@H](CCc2ccc3cc(Cl)c(NCC4CC4)nc3c2)[C@@H](O)[C@H]1O` [Compound 147], the IC50 on PRMT5-MEP50 enzyme [1] is 251 nM; on PRMT5-MEP50 enzyme [2] it was 251 nM; in test [3] (setting [4]), 31.6 nM.
Regarding `Nc1ncnc2c1ccn2[C@@H]1O[C@H](COc2ccc3nccnc3c2)[C@@H](O)[C@H]1O` [Compound 15], the results for the IC50 (at PRMT5-MEP50 enzyme [2]; in test [3] (setting [4])) were 1000 nM and > 3980 nM, respectively.
The like results for `Nc1ncnc2c1ccn2[C@@H]1O[C@H](CSc2ccc3cccnc3c2)[C@@H](O)[C@H]1O` [Compound 48] were, in that order, 100 nM and 398 nM.
Take `Nc1ccc2ccc(CC[C@H]3C[C@@H](n4ccc5cncnc54)[C@H](O)[C@@H]3O)cc2n1` [Compound 77]: the IC50 is 0.501 nM at PRMT5-MEP50 enzyme [2] and < 1.17 nM in test [3] (setting [4]).
Consider `CC(Oc1ccc2cccnc2c1)[C@H]1O[C@@H](n2ccc3c(N)ncnc32)[C@H](O)[C@@H]1O` (single isomer, unassigned) [Compound 67], for which the IC50 at PRMT5-MEP50 enzyme [2] was 100 nM. Also, the “pIC50 Assay 2” value in test [3] (averaged values, PD assay, A549 cells, symmetric Arginine dimethylation) is 6.5.
For the compound `Nc1nc2cc(CC[C@H]3C[C@@H](n4ccc5c(N)ncnc54)[C@H](O)[C@@H]3O)ccc2cc1Cl` [Compound 81], the IC50 at PRMT5-MEP50 enzyme [2] was 0.251 nM; in test [3] (setting [4]) it was 0.2 nM.
In the case of `Nc1ncnc2c1c(Br)cn2[C@@H]1O[C@H](COc2ccc3cccnc3c2)[C@@H](O)[C@H]1O` [Compound 45], the IC50 at PRMT5-MEP50 enzyme [2] is 251 nM; in test [3] (setting [4]), 631 nM.
As for `Nc1ncnc2c1ccn2[C@@H]1O[C@H](COc2cnc3cccnc3c2)[C@@H](O)[C@H]1O` [Compound 14], the IC50 at PRMT5-MEP50 enzyme [2] was 1260 nM; in test [3] (setting [4]) it was > 20000 nM.
For `Nc1ncnc2c1ccn2[C@@H]1O[C@H](COc2cc3ncc(Br)cc3cc2Cl)[C@@H](O)[C@H]1O` [Compound 92], the values for the IC50 (on PRMT5-MEP50 enzyme [2]; in test [3] (setting [4])) were 63.1 nM and 794 nM, respectively.
Consider `CNc1ncnc2c1ccn2[C@@H]1C[C@H](CCc2ccc3ccc(N)nc3c2)[C@@H](O)[C@H]1O` [Compound 78], for which the IC50 was 1.26 nM on PRMT5-MEP50 enzyme [2] and 0.316 nM in test [3] (A549, read-out: pIC50 Assay 2 (converted)).
Consider `Nc1ncnc2c1ccn2[C@@H]1O[C@H](COc2ccc3ccc(Cl)nc3c2)[C@@H](O)[C@H]1O` [Compound 20], for which the IC50 is 2000 nM at PRMT5-MEP50 enzyme [2] and 6310 nM in test [3] (setting [4]).
As to `Nc1ncnc2c1ccn2[C@@H]1O[C@H](COc2ccc3ccccc3c2)[C@@H](O)[C@H]1O` [Compound 9], the values for the IC50 (on PRMT5-MEP50 enzyme [2]; in test [3] (setting [4])) were 3160 nM and > 20000 nM, respectively.
Take `CNC(=O)c1ccc2ccc(OC[C@H]3O[C@@H](n4ccc5c(N)ncnc54)[C@H](O)[C@@H]3O)cc2n1` [Compound 246]: the IC50 is 3160 nM at PRMT5-MEP50 enzyme [2] and > 20000 nM in test [3] (setting [4]).
For `COc1ncnc2c1ccn2[C@@H]1C[C@H](CCc2ccc3ccc(N)nc3c2)[C@@H](O)[C@H]1O` [Compound 79], the IC50 is 0.398 nM on PRMT5-MEP50 enzyme [2] and < 1.17 nM in test [3] (setting [4]).
Take `Nc1ncnc2c1ccn2[C@@H]1O[C@H](COc2ccc3cc(Br)cnc3c2Cl)[C@@H](O)[C@H]1O` [Compound 94]: the IC50 on PRMT5-MEP50 enzyme [2] is 1000 nM; in test [3] (setting [4]), ~1000 nM.
Take `COc1cc2c(Cl)ccnc2cc1OC[C@H]1O[C@@H](n2ccc3c(N)ncnc32)[C@H](O)[C@@H]1O` [Compound 36]: the IC50 at PRMT5-MEP50 enzyme [2] was 7940 nM; in test [3] (setting [4]), > 20000 nM.
As to `Nc1nc2cc(CC[C@H]3C[C@@H](n4ccc5c(NC6CC6)ncnc54)[C@H](O)[C@@H]3O)ccc2cc1Cl` [Compound 197], the IC50 at PRMT5-MEP50 enzyme [1] is 0.631 nM; in test [3] (setting [4]), 31.6 nM.
With `CNc1nc2cc(CC[C@H]3C[C@@H](n4ccc5c(NC)ncnc54)[C@H](O)[C@@H]3O)ccc2cc1F` [Compound 203], the results for the IC50 (at PRMT5-MEP50 enzyme [1]; in test [3] (setting [4])) were > 2510 nM and 6310 nM, respectively.
On to `Cc1c(OC[C@H]2O[C@@H](n3ccc4c(N)ncnc43)[C@H](O)[C@@H]2O)ccc2cccnc12` [Compound 39], for which the figures for the IC50 (at PRMT5-MEP50 enzyme [2]; in test [3] (setting [4])) were 2510 nM and 2000 nM, respectively.
With `Nc1ncnc2c1ccn2[C@@H]1C[C@H](/C=C/c2ccc3cc(Cl)cnc3c2)[C@@H](O)[C@H]1O` [Compound 57], the IC50 is 31.6 nM at PRMT5-MEP50 enzyme [2] and ~151 nM in test [3] (setting [4]).
Turning to `Nc1ncnc2c1ccn2[C@@H]1O[C@H](COc2cccc3ccncc23)[C@@H](O)[C@H]1O` [Compound 7], the figures for the IC50 (on PRMT5-MEP50 enzyme [2]; in test [3] (setting [4])) were 1260 nM and ~17400 nM, respectively.
Consider `CNc1ncnc2c1ccn2[C@@H]1C[C@H](CCc2ccc3cc(C(F)(F)F)c(N)nc3c2)[C@@H](O)[C@H]1O` [Compound 201], for which the IC50 at PRMT5-MEP50 enzyme [1] is 1.58 nM; in test [3] (setting [4]), 39.8 nM.
As for `COc1ncnc2c1ccn2[C@@H]1O[C@H](CCc2ccc3cc(Cl)c(N)nc3c2)[C@@H](O)[C@H]1O` [Compound 199], the IC50 at PRMT5-MEP50 enzyme [1] is 39.8 nM; in test [3] (setting [4]), 251 nM.
The like results for `CNc1ncnc2c1ccn2[C@@H]1C[C@H](CCc2ccc3cc(Cl)c(N)nc3c2)[C@@H](O)[C@H]1O` [Compound 194] were, in that order, 0.631 nM and 1.58 nM.
With `CC(C)Nc1ncnc2c1ccn2[C@@H]1C[C@H](CCc2ccc3cc(Cl)c(N)nc3c2)[C@@H](O)[C@H]1O` [Compound 196], the IC50 at PRMT5-MEP50 enzyme [1] is 2 nM; in test [3] (setting [4]) it was 100 nM.
